Test results: patent publication US7419944B2, “Aqueous disinfecting systems” (Novartis AG, priority 2000, dated 2008)

How the values were obtained:
Candida albicans = test: Semi-quantitative screen of common buffers plus approx. 1.2 ppm PHMB for antimicrobial activity; type: cell-based; settings: for log reduction: buffer of equal molarity plus approx. 1.2 ppm PHMB, Candida albicans approx. 4x10^5 cfu/ml, estimated visually, in duplicate; for log reduction / estimated relative antimicrobial activity: 4.0 hour exposure; for estimated relative antimicrobial activity: buffer plus approx. 1.2 ppm PHMB, Candida albicans
Description: In this example common buffers plus approximately 1.2 ppm PHMB are evaluated for antimicrobial activity against Candida albicans. The pH and molarity of each solution was adjusted to approximately the same values. In that log reductions are estimated by visual observation of solution color and/or pellet formation in the bottom of the test tube, the test is semi-quantitative. All tests were performed in duplicate. All of the biological buffers shown in are described in Biochemicals and Reagents, Sigma-Aldrich CO., 2000-2001 edition Sigma-Aldrich, or online at URL sigma-aldrich.com.
Tubes of sterile solutions of buffer of equal molarity plus approxiamately 1.2 ppm PHMB are challenged with a suspension of Candida albicans at approx. 4×10^5 cfu/ml. Following 4.0 hour exposure, aliquots of each test solution are serially diluted to 10^−5 in DEB. Following approx. 40 hours incubation at ˜32° C., the tubes are observed for discoloration of the DEB and for a pellet in the 10^−5 tube. The entire study is then performed in duplicate.

[1] = cited from earlier work

Compound	log reduction (Candida albicans)	other results
NC(=O)CN(CC(=O)O)CC(=O)O [ADA]	NONE	
O=S(=O)(O)CCN1CCN(CCS(=O)(=O)O)CC1 [PIPES]	NONE	
O=S(=O)(O)CCCCN1CCOCC1 [MOBS]	<1 log	
O=S(=O)(O)CC(O)CN1CCOCC1 (stereo not shown) [MOPSO]	NONE	
O=S(=O)(O)CC(O)CN(CCO)CCO (stereo not shown) [DIPSO]	<1 log	
O=S(=O)(O)CCNC(CO)(CO)CO [TES]	<1 log	
Borate	2-3 log	estimated relative antimicrobial activity (Candida albicans): superior activity
O=S(=O)(O)CCN1CCN(CCO)CC1 [HEPES]	<1 log	
OCC(CO)(CO)NCCCNC(CO)(CO)CO [BIS-TRIS propane, 1,3-bis(tris[hydroxymethyl]methylamino)propane]	2-3 log	estimated relative antimicrobial activity (Candida albicans): superior activity; antimicrobial activity compared with solutions employing any of the other buffering agents (Candida albicans; screening study of 15 biological buffers with polyhexamethylene biguanide or alexidine): significantly higher; pH range useful as a buffering agent ([1]; aqueous solutions): 6.3-9.3; pKa1 ([1]; dissociation constant): 6.8; pKa2 ([1]; dissociation constant): 9.5
O=S(=O)(O)CCN(CCO)CCO [BES]	NONE	
OCCN(CCO)C(CO)(CO)CO [BIS-TRIS]	1 log	estimated relative antimicrobial activity (Candida albicans): better activity than phosphate
O=S(=O)(O)CC(O)CNC(CO)(CO)CO (stereo not shown) [TAPSO]	1 log	estimated relative antimicrobial activity (Candida albicans): better activity than phosphate
NC(=O)CNCCS(=O)(=O)O [ACES]	<1 log	
O=S(=O)(O)CCCN1CCOCC1 [MOPS]	NONE	
